These results are taken from patent publication US6913925B1, “Human mesencephalon cell lines and methods of use therefor” (Signal Pharmaceuticals LLC, priority 1998, dated 2005).

The chains are these.
B1: GDNF: glial cell-derived neurotrophic factor (protein, UniProt P39905 78-211, looked up)
Glial cell line-derived …: SPDKQMAVLPRRERNRQAAAANPENSRGKGRRGQRGKNRGCVLTAIHLNVTDLGLGYETKEELIFRYCSGSCDAAETTYDKILKNLSRNRRLVSDKVGQACCRPIAFDDDLSFLDDNLVYHILRKHSAKRCGCI
B2: CNTF: ciliary neurotrophic factor (protein, UniProt P26441 1-200, looked up)
Ciliary neurotrophic factor: MAFTEHSPLTPHRRDLCSRSIWLARKIRSDLTALTESYVKHQGLNKNINLDSADGMPVASTDQWSELTEAERLQENLQAYRTFHVLLARLLEDQQVHFTPTEGDFHQAIHTLLLQVAAFAYQIEELMILLEYKIPRNEADGMPINVGDGGLFEKKLWGLKVLQELSQWTVRSIHDLRFISSHQTGIPARGSHYIANNKKM

The test deals with immortalized human mesencephalon cells. Briefly: Differentiation of conditionally-immortalized human mesencephalon cell lines into neurons. It counts as cell-based. The note with it: added together: forskolin 10 μM, GDNF 20 ng/mL, CNTF 20 ng/mL, IGF-I 100 ng/mL, BDNF 20 ng/mL. From the text:
Conditionally-immortalized human mesencephalon neural precursor cell lines (which may, but need not, be clonal) may generally be induced to differentiate into neurons by inhibiting the expression of the growth-promoting gene (i.e., suppressing the production and/or activity of the growth-promoting protein). For example, if the gene encoding the growth-promoting protein is under the control of an externally-regulatable promoter, the conditions (e.g. temperature or composition of medium) may be modified to suppress transcription of the growth-promoting gene. For the tetracycline-controlled gene expression system discussed above, differentiation may be achieved by the addition of tetracycline to suppress transcription of the growth-promoting gene. In general, 1-5 μg/mL tetracycline for 48 hours is sufficient to begin neuronal morphological differentiation, and the number of differentiated neurons increases during subsequent days. Such differentiation may be performed, for example, by plating the cells on a suitable substrate (e.g., one or a combination of polyamino acid, fibronectin, laminin or tissue culture plastic) in a medium consisting of DMEM/F-12 with N2 supplement and tetracycline (1-5 μg/mL). […] Culture medium may then be refreshed (e.g., every 2-4 days).
An increase in TH expression was also observed for some cell lines, indicating the presence of dopaminergic neurons.
One clone (MESII(1)-C2) was differentiated in DMEM/F-12 with N2 supplement, tetracycline (1 μg/mL), forskolin (10 μM), GDNF (20 ng/mL) and BDNF (20 ng/mL). Following differentiation, a high number of MAP2ab and TH immunoreactive cells were observed. For such immunocytochemistry, cells were fixed with 4% paraformaldehyde, and were incubated with primary antibody in blocking buffer for 2 hours at room temperature, rinsed, and then incubated with a fluorescein (FITC)- or Texas red-conjugated species-specific secondary antibody (Jackson lmmunoresearch Laboratories, Inc., West Grove, Pa.) in blocking buffer for another hour at room temperature. Cultures were then rinsed three times with PBS and coverslipped with PVA/DABCO before scoring and photographing representative fields.
Consider BDNF: brain-derived neurotrophic factor, for which the “enhancement of differentiation by addition to DMEM/F-12 with N2 supplement and tetracycline” value (“enhancement of differentiation” below) is “differentiation is enhanced”.

With IGF-I: insulin-like growth factor, the “enhancement of differentiation” value is “differentiation is enhanced”.

Turning to B1, the “enhancement of differentiation” value was “differentiation is enhanced”.

On to B2, for which the “enhancement of differentiation” value was “differentiation is enhanced”.
